In ChEMBL document CHEMBL1828555, “Primary amino acid derivatives: substitution of the 4'-N'-benzylamide site in (R)-N'-benzyl 2-amino-3-methylbutanamide, (R)-N'-benzyl 2-amino-3,3-dimethylbutanamide, and (R)-N'-benzyl 2-amino-3-methoxypropionamide provides potent anticonvulsants with pain-attenuating properties” (J Med Chem, 2011):
Activity calls are given as the source filed them. The calls are words filed in the database; no cut-off is given here.

Legend:
Mus musculus [1] = assay: Anticonvulsant activity in ip dosed albino CF1 mouse assessed as protection against subcutaneous pentylenetetrazol-induced seizure; assay type: functional, organism-based
[2] = Neurotoxicity in ip dosed NMRI mouse assessed as median neurological impairing dose after 30 mins by rotarod test; assay type: toxicity, organism-based; conditions: in vivo
Mus musculus [3] = assay: Anticonvulsant activity in ip dosed NMRI mouse assessed as protection against maximal electroshock seizure after 30 mins; assay type: functional; conditions: 0.5 h
[4] = Neurotoxicity in ip dosed albino CF1 mouse assessed as median neurological impairing dose after 30 mins; assay type: toxicity, organism-based; conditions: in vivo
Mus musculus [5] = assay: Neurotoxicity in ip dosed albino CF1 mouse assessed as time of peak effect for median neurological impairing; assay type: toxicity, organism-based; conditions: in vivo
Mus musculus [6] = assay: Anticonvulsant activity in ip dosed albino CF1 mouse assessed as time of peak effect for protection against maximal electroshock-induced seizure; assay type: functional
Mus musculus [7] = assay: Anticonvulsant activity in ip dosed albino CF1 mouse assessed as protection against maximal electroshock-induced seizure after 30 mins; assay type: functional; conditions: 0.5 h
Mus musculus [8] = assay: Analgesic activity in ip dosed NMRI mouse assessed as reduction in formalin-induced neuropathic pain after 30 mins; assay type: functional; conditions: 0.5 h
Mus musculus [9] = assay: Protective index, ratio of TD50 for ip dosed NMRI mouse to ED50 for ip dosed NMRI mouse by maximal electroshock test; assay type: functional
Mus musculus [10] = assay: Anticonvulsant activity in ip dosed 6 Hz psychomotor seizure model of NMRI mouse assessed as protection against seizure after 30 minutes; assay type: functional; conditions: 0.5 h
Mus musculus [11] = assay: Protective index, ratio of TD50 for ip dosed albino CF1 mouse to ED50 for ip dosed albino CF1 mouse by maximal electroshock test; assay type: functional
Rattus norvegicus [12] = assay: Anticonvulsant activity in po dosed albino Sprague-Dawley rat assessed as time of peak effect for protection against maximal electroshock seizure; assay type: functional
Rattus norvegicus [13] = assay: Toxicity in po dosed albino Sprague-Dawley rat assessed as time of peak effect for behavioural toxicity; assay type: organism-based; conditions: in vivo
Rattus norvegicus [14] = assay: Anticonvulsant activity in po dosed albino Sprague-Dawley rat assessed as protection against maximal electroshock seizure; assay type: functional
[15] = Toxicity in po dosed albino Sprague-Dawley rat assessed as behavioural toxicity; assay type: organism-based; conditions: in vivo
Mus musculus [16] = assay: Anticonvulsant activity in ip dosed albino CF1 mouse assessed as protection against 6 Hz psychomotor seizure after 30 mins; assay type: functional; conditions: 0.5 h
Rattus norvegicus [17] = assay: Protective index, ratio of TD50 for po dosed albino Sprague-Dawley rat to ED50 for po dosed albino Sprague-Dawley rat by maximal electroshock test; assay type: functional
Mus musculus [18] = assay: Anticonvulsant activity in ip dosed albino CF1 mouse assessed as time of peak effect for protection against 6 Hz psychomotor seizure; assay type: functional

SMILES	Activity (Mus musculus [1])	TD50 at 0.5 h [2] [mg/kg]	ED50 (Mus musculus [3]) [mg/kg]	TD50 at 0.5 h [4] [mg/kg]	Time (Mus musculus [5]) [h]	Time (Mus musculus [6]) [h]	ED50 (Mus musculus [7]) [mg/kg]	ED50 (Mus musculus [8]) [mg/kg]	Ratio TD50/ED50 (Mus musculus [9])	ED50 (Mus musculus [10]) [mg/kg]	Ratio TD50/ED50 (Mus musculus [11])	Time (Rattus norvegicus [12]) [h]	Time (Rattus norvegicus [13]) [h]	ED50 (Rattus norvegicus [14]) [mg/kg]	TD50 [15] [mg/kg]	ED50 (Mus musculus [16]) [mg/kg]	Ratio TD50/ED50 (Rattus norvegicus [17])	Time (Mus musculus [18]) [h]
COC[C@@H](N)C(=O)NCc1ccc(OC(F)(F)F)cc1.Cl	inactive	30	10															
CC(C)(C)[C@@H](N)C(=O)NCc1ccc(-c2ccccc2)cc1	inactive			30	0.5	0.5	30											
COC[C@H](N)C(=O)NCc1ccc(COc2cccc(F)c2)cc1	inactive			100			30											
COC[C@H](N)C(=O)NCc1ccccc1	inactive	63	64					120	1	> 70								
CCC1(c2ccccc2)C(=O)NC(=O)NC1=O [PHENOBARBITAL]				66	0.5	1					3	5	0.5					
CC(C)(C)[C@@H](N)C(=O)NCc1ccc(OCc2cccc(F)c2)cc1	inactive			300	0.5	0.5	30					0.25	0.25	> 30	> 30			
CC(C)[C@@H](N)C(=O)NCc1ccc(C(F)(F)F)cc1	inactive			57	0.25	0.5	14				4.1	1		13	> 500	30	>38	0.5
CC(C)[C@@H](N)C(=O)NCc1ccc(-c2ccccc2)cc1	inactive			> 300	0.5	0.5	30					2	0.25	30	> 30			
COc1ccc(CNC(=O)[C@H](N)C(C)C)cc1	inactive			30	0.5	0.5	> 300					0.25	0.25	> 30	> 30			
CC(C)[C@@H](N)C(=O)NCc1ccc(COc2cccc(F)c2)cc1	inactive		12	71	0.5	0.25	18	30	3.9	> 110		0.5	0.25	< 30	> 30	30		0.5
C[C@@H](N)C(=O)NCc1ccc(OCc2cccc(F)c2)cc1	inactive		17					> 37		> 120								
COC[C@@H](N)C(=O)NCc1ccc(C(F)(F)F)cc1.Cl	inactive	48	19					> 31	2.5	55								
Cc1ccc(CNC(=O)[C@H](N)C(C)C)cc1	inactive			> 300	0.5	0.5	> 300					1	0.25	50	> 50			
CCCC(CCC)C(=O)[O-].[Na+] [VALPROATE SODIUM]					0.25	0.5	270					0.5	0.5					
CC(C)(C)[C@@H](N)C(=O)NCc1ccc(C(F)(F)F)cc1	inactive			133	0.25	0.25	24				5.5	0.5	0.25	< 30	> 30			
COC[C@@H](NC(C)=O)C(=O)NCc1ccccc1 [LACOSAMIDE]		19	3.3	27	0.25	0.5		15		10		2			> 500	10		
CC(C)[C@H](N)C(=O)NCc1ccc(COc2cccc(F)c2)cc1	inactive			100			30					0.25	0.25	> 30	> 30			
CC(C)(C)[C@H](N)C(=O)NCc1ccccc1	inactive			105	0.25	0.25	42		2.5									
COC[C@@H](N)C(=O)NCc1ccccc1.Cl	inactive	> 120	34	30	0.25	0.25	48	> 67	>3.5	> 67								
O=C1NC(=O)C(c2ccccc2)(c2ccccc2)N1 [PHENYTOIN]				27	0.25	2						4			> 3000			
C[C@H](N)C(=O)NCc1ccccc1				> 300			> 300											
CC(C)(C)[C@@H](N)C(=O)NCc1ccc(OC(F)(F)F)cc1	inactive			73	0.25	1	28				2.6	2	0.25	23	> 30			
CC(C)(C)[C@@H](N)C(=O)NCc1ccc(COc2cccc(F)c2)cc1	inactive			100	0.5	0.5	30					2	0.25	30	> 30	> 75		
CC(C)[C@H](N)C(=O)NCc1ccccc1	inactive			> 300			> 300											
